Results published in patent US20250277030A1, “ANTI-NAPI2B ANTIBODIES AND METHODS OF USE” (Zymeworks BC Inc., priority 2022, published 2025).

Key:
[1] = target: T1, human NaPi2b (Homo sapiens, UniProt O95436); experiment: Competition binding (epitope binning) by flow cytometry on HEK293-6e cells expressing human NaPi2b; conditions: unlabeled competitor antibody 100 μg/mL, GFP- population
T1 construct: host or cells: HEK293-6e
T1 sequence (O95436 1-690): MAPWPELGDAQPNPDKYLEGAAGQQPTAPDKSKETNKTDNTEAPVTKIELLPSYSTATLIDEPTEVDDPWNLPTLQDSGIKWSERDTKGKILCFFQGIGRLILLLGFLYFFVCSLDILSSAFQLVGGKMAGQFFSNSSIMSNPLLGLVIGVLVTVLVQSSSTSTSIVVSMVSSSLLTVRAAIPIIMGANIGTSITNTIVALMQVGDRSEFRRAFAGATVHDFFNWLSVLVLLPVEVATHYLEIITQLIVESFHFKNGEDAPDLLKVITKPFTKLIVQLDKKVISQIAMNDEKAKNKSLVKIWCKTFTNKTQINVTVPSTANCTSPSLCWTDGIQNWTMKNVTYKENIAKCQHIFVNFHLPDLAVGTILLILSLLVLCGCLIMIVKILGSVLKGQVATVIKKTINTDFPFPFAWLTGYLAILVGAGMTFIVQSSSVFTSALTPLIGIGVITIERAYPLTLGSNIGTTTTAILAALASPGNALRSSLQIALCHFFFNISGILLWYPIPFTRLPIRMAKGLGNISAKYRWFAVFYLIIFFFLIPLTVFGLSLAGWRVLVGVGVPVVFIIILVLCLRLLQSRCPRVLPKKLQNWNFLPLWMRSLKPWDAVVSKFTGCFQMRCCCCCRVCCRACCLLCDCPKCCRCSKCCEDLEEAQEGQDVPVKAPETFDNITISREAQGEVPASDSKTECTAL
Description: Binding was assessed by flow cytometry using HEK293-6e cells as described below.
HEK293-6e cells were transfected for ˜24 hours to transiently express human NaPi2b (1 μg of pTT5-NaPi2b per 1 million cells) or transfected with GFP (ATUM, Menlo Park, CA; pD2610-v23, also 1 μg of DNA per 1 million cells). Following transfection, human NaPi2b-expressing HEK296-6e cells and transfected GFP-expressing HEK296-6e cells were mixed at 4:1 ratio. Each well of a V-bottom 96-well plate was seeded with 100,000 cells of the mixture and incubated with 100 μg/mL of unlabeled competitor anti-NaPi2b antibody for an hour on ice. Post incubation, cells were washed and stained with 1 μg/mL of AF647-conjugated anti-NaPi2b detection antibodies for an hour on ice. Following staining and washing, fluorescence was detected by flow cytometry on a BD LSRFortessa™ Cell Analyzer (BD Biosciences, Franklin Lake, NJ) with 10,000 minimum events collected per well. The AF647/APC-A GeoMean (fluorescence signal geometric mean, proportional to anti-Human AF647 binding) was calculated for the FITC/GFP negative live cell population and using FlowJo™ Version 10.8.1 (BD Biosciences, Franklin Lake, NJ). Percentage inhibition was calculated using the following formula: […]

[2] = test system: cynomolgus NaPi2b; experiment: Flow cytometry binding to HEK293-6e cells transfected with cynomolgus NaPi2b (Example 5); conditions: transfected HEK293-6e cells, 18-24 hours at 4° C.
Description: The binding cross-reactivity of humanized antibody variant v29456 to human, cynomolgus and mouse NaPi2b was assessed by flow cytometry using HEK293-6e transfected cells.
Briefly, HEK293-6e cells were transfected for ˜24 hours to transiently express human NaPi2b, cynomolgus or mouse NaPi2b, at 1 μg of DNA per 1 million cells. Following transfection, 50,000 cells per well were seeded in V-bottom 96-well plates and incubated with 200 nM of primary antibody for 18-24 hours at 4° C. to prevent internalization. Post-incubation, cells were washed and stained with anti-Human IgG Fc AF647 conjugate (Jackson Immuno Research Labs, West Grove, PA, Cat. No. 109-605-098, Lot. No. 124868) at 4° C. for 1 hour. Following staining and washing, fluorescence was detected by flow cytometry on BD LSRFortessa™ Cell Analyzer (BD Biosciences, Franklin Lake, NJ) with 10,000 minimum events collected per well. The AF647/APC-A GeoMean (fluorescence signal geometric mean, proportional to anti-Human AF647 binding) was calculated for the live singlet cell population for each primary antibody using FlowJo™ v8 software (BD Biosciences, Franklin Lake, NJ). The Bmax and Kd of each primary antibody were calculated using GraphPad Prism Version 9 (GraphPad Software, San Diego, CA)

[3] = test system: OVCAR-3 cells; experiment: In vitro cytotoxicity, 2D monolayer, CellTiter-Glo, OVCAR-3; format: cell-based, human; conditions: OVCAR-3, 4 days; IC = Incomplete Curve
Description: (§1) The cytotoxicity as measured by cell growth inhibition of the humanized variant v29456 (H1L2) conjugated to various drug-linkers were assessed in a panel of NaPi2b-expressing cell lines as described below. Cell lines used were OVCAR-3 (ovarian carcinoma), IGROV-1 (ovarian carcinoma), and HCC-78 (lung carcinoma). ADCs with antibody palivizumab (anti-RSV) (v22277) were used as non-targeted controls.
(§2) OVCAR-3 were cultured in RPMI 1640 Medium, ATCC modification (Thermo Fisher Scientific, Waltham, MA) supplemented with 20% fetal bovine serum (FBS) (Thermo Fisher Scientific, Waltham, MA) and 0.01 μg/mL human insulin (Sigma-Aldrich, Oakville, ON). […] After incubation, CellTiter-Glo® reagent (Promega Corporation, Madison, WI) was added in all wells and luminescence corresponding to ATP present in each well was measured using a Synergy™H1 plate reader (BioTek Instruments, Winooski, VT). Percent cytotoxicity values were calculated by the following formula: (1−(Luminescence of Treated Cells/Average Luminescence of Untreated Cells))×100, and plotted against test article concentration using GraphPad Prism 9 software (GraphPad Software, San Diego, CA). EC50 values were calculated based on a non-linear regression log(agonist) versus response, variable slope (four parameters) by GraphPad Prism 9.

[4] = test system: IGROV-1 cells; experiment: In vitro cytotoxicity, 2D monolayer, CellTiter-Glo, IGROV-1; format: cell-based, human; conditions: IGROV-1, 4 days
Description: as §1, §2

[5] = test system: HCC-78 cells; experiment: In vitro cytotoxicity, 2D monolayer, CellTiter-Glo, HCC-78; format: cell-based, human; conditions: HCC-78, 4 days
Description: as §1, §2

cynomolgus NaPi2b, sequence (as listed by the source): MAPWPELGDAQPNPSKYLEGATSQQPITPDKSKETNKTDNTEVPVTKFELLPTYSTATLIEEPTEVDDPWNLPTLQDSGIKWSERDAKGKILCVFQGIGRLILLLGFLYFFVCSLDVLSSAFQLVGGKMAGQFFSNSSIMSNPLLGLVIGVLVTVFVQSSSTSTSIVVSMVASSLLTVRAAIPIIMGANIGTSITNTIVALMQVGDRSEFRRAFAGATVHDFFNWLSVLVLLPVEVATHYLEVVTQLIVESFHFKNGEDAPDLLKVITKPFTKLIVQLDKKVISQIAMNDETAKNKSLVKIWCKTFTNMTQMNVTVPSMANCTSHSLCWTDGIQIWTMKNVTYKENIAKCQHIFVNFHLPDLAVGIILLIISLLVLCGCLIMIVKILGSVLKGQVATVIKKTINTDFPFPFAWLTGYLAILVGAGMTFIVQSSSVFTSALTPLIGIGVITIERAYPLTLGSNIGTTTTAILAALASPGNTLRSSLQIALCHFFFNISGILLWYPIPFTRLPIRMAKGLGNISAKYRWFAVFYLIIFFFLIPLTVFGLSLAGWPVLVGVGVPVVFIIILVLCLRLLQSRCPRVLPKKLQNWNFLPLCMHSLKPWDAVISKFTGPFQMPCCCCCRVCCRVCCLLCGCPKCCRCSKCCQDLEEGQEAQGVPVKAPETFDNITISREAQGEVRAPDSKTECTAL

Substance | Bmax (APC-A GeoMean), Cyno NaPi2b [2] | EC50 [3] [nM] | EC50 [4] [nM] | EC50 [5] [nM] | also measured
v16955: Palivizumab (anti-RSV), negative control antibody in the competition binding |  |  |  |  | % Inhibition vs. irrelevant mAb, labeled detection antibody v16955 (negative control) ([1]; labeled detection antibody v16955 1 μg/mL): 0%; % Inhibition vs. irrelevant mAb, labeled detection antibody v18992 (MX35) ([1]; labeled detection antibody v18992 1 μg/mL): 0%; % Inhibition vs. irrelevant mAb, labeled detection antibody v18993 (lifastuzumab) ([1]; labeled detection antibody v18993 1 μg/mL): 0%; % Inhibition vs. irrelevant mAb, labeled detection antibody v23855 ([1]; labeled detection antibody v23855 1 μg/mL): 0%
v18992: anti-NaPi2b reference humanized antibody MX35 [reference compound] | 2,365 APC-A GeoMean |  |  |  | 
v18993: anti-NaPi2b reference humanized antibody lifastuzumab [reference compound] | 1,557 APC-A GeoMean |  |  |  | 
v22277-DL1: non-targeted control ADC of palivizumab v22277 with MC-GGFG-AM-DXd1 (DL1), DAR 8 |  | > 50 | > 50 | > 50 | 
v22277-DL3: non-targeted control ADC of palivizumab v22277 with MC-VC-PABC-MMAE (DL3), DAR 4 |  | 9.4 | 7.02 | 11.4 | 
